Test results as given in the supplement of paper PMC10307832.

How the values were obtained:
Test in all cases: relative viability (nuclei count vs DMSO), 5 days (fraction); higher = more cells survive
[1] = compound: CC1=CC=C(C=C1)C(=O)CN2C3=C(CCCC3)SC2=N [Pifithrin_alpha] + COc1cc2c(Oc3ccc(NC(=O)C4(C(=O)Nc5ccc(F)cc5)CC4)cc3F)ccnc2cc1OCCCN1CCOCC1 [Foretinib] (partner 0.25 µM)
Method in brief: (§1)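 Each reported value is a median over duplicate plates. It expresses relative viability: treated-well nuclei count divided by vehicle-well nuclei count. Lung cancer cell lines in 1536-well plates were dosed by pin tool a day after seeding, alone with one drug or with a fixed anchor-drug dose plus five library-drug doses (not always all listed) in √10 steps, and nuclei were counted after 5 days.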

Bemcentinib + Linsitinib = compound: Nc1nc(Nc2ccc3c(c2)CC[C@@H](N2CCCC2)CC3)nn1-c1cc2c(nn1)-c1ccccc1CCC2 [Bemcentinib] + C[C@]1(O)C[C@@H](c2nc(-c3ccc4ccc(-c5ccccc5)nc4c3)c3c(N)nccn32)C1 [Linsitinib] (partner 1 µM)
Method in brief: as §1

[2] = compound: CC1=CC=C(C=C1)C(=O)CN2C3=C(CCCC3)SC2=N [Pifithrin_alpha] + C[C@]1(O)C[C@@H](c2nc(-c3ccc4ccc(-c5ccccc5)nc4c3)c3c(N)nccn32)C1 [Linsitinib] (partner 1 µM)
Method in brief: as §1

Bemcentinib + Tozasertib = compound: Nc1nc(Nc2ccc3c(c2)CC[C@@H](N2CCCC2)CC3)nn1-c1cc2c(nn1)-c1ccccc1CCC2 [Bemcentinib] + Cc1cc(Nc2cc(N3CCN(C)CC3)nc(Sc3ccc(NC(=O)C4CC4)cc3)n2)n[nH]1 [Tozasertib] (partner 0.1 µM)
Method in brief: as §1

Cell Line | relative viability ([1]; first compound 1 µM) | relative viability ([1]; first compound 3.162 µM) | relative viability ([1]; first compound 10 µM) | relative viability ([1]; first compound 100 µM) | relative viability (Bemcentinib + Linsitinib; first compound 0.04 µM) | relative viability (Bemcentinib + Linsitinib; first compound 0.1265 µM) | relative viability (Bemcentinib + Linsitinib; first compound 0.4 µM) | relative viability (Bemcentinib + Linsitinib; first compound 1.265 µM) | relative viability (Bemcentinib + Linsitinib; first compound 4 µM) | relative viability ([2]; first compound 1 µM) | relative viability ([2]; first compound 3.162 µM) | relative viability ([2]; first compound 10 µM) | relative viability ([2]; first compound 31.62 µM) | relative viability ([2]; first compound 100 µM) | relative viability (Bemcentinib + Tozasertib; first compound 0.04 µM) | relative viability (Bemcentinib + Tozasertib; first compound 0.1265 µM) | relative viability (Bemcentinib + Tozasertib; first compound 0.4 µM) | relative viability (Bemcentinib + Tozasertib; first compound 1.265 µM) | relative viability (Bemcentinib + Tozasertib; first compound 4 µM) | relative viability ([1]; first compound 31.62 µM)
NCI-H727 | 0.903 | 0.759 | 0.837 | 0.75 | 0.331 | 0.286 | 0.288 | 0.3 | 0.293 | 0.295 | 0.312 | 0.271 | 0.293 | 0.217 | 0.537 | 0.759 | 0.606 | 0.629 | 0.58 | 
NCI-H838 | 1.06 | 0.933 | 0.991 | 0.762 | 0.995 | 1.08 | 1.02 | 1.08 | 1.05 | 0.96 | 0.888 | 0.853 | 0.735 | 0.782 | 0.281 | 0.268 | 0.264 | 0.262 | 0.291 | 0.8
NCI-H1355 | 0.949 | 0.743 | 0.663 | 0.65 | 0.858 | 0.98 | 0.848 | 0.903 | 0.99 | 0.753 | 0.666 | 0.599 | 0.605 | 0.599 | 0.529 | 0.569 | 0.562 | 0.61 | 0.538 | 0.587
NCI-H1395 | 0.899 | 0.98 | 0.975 | 0.712 | 1.06 | 1.21 | 1.01 | 1.48 | 0.962 |  | 1.05 | 1.03 | 0.638 | 0.974 | 0.759 | 0.763 | 0.782 | 0.739 | 0.753 | 0.748
NCI-H1437 | 1.4 | 1.33 | 1.21 | 0.93 | 1.03 | 1.14 | 1.16 | 1.12 | 1.18 | 1.14 | 1.24 | 0.893 | 0.564 | 0.54 | 0.399 | 0.435 | 0.436 | 0.421 | 0.401 | 0.794
NCI-H1651 | 0.933 | 0.775 | 0.787 | 0.7 | 0.958 | 0.965 | 1.15 | 1.15 | 1.08 | 0.997 | 1.13 | 0.892 | 0.709 | 1.02 | 0.671 | 0.835 | 0.87 | 0.77 | 0.635 | 0.583
NCI-H1666 | 0.969 | 0.933 | 0.867 | 0.763 | 0.932 | 0.872 | 0.958 | 0.972 | 0.707 | 0.69 | 0.599 | 0.534 | 0.521 | 0.448 | 0.605 | 0.619 | 0.621 | 0.594 | 0.595 | 0.781
NCI-H1734 | 0.868 | 0.825 | 0.814 | 0.793 | 0.856 | 0.913 | 0.952 | 1.01 | 0.836 | 0.994 | 0.89 | 0.862 | 0.611 | 0.889 | 0.245 | 0.28 | 0.25 | 0.256 | 0.27 | 0.763
NCI-H1755 | 0.819 | 0.833 | 0.849 | 0.862 | 1.03 | 1.02 | 1.04 | 1.04 | 1.11 | 0.935 | 0.991 | 0.905 | 0.802 | 0.969 | 0.64 | 0.742 | 0.626 | 0.607 | 0.613 | 0.674
NCI-H1793 |  | 0.539 | 0.61 | 0.483 | 0.662 | 1.09 | 0.81 | 1.07 | 0.992 | 0.896 | 0.7 | 0.812 | 0.787 | 0.964 | 0.313 | 0.371 | 0.314 |  | 0.371 | 0.642
NCI-H1915 | 1.09 | 1.15 |  | 1.12 | 1.05 | 1.13 | 1.1 | 1.11 | 1.1 | 1.01 | 1.08 | 1.08 |  | 1.14 | 0.511 | 0.462 | 0.44 | 0.468 | 0.443 | 
NCI-H1944 | 0.816 | 0.713 | 0.732 | 0.677 | 1.25 | 1.08 | 1.28 | 1.16 | 1.1 | 1.18 | 1.23 | 1.11 |  | 1.04 | 0.258 | 0.261 | 0.255 | 0.251 | 0.242 | 0.47
NCI-H1975 | 0.869 | 0.8 | 0.572 | 0.568 | 0.981 | 1.03 | 1.03 | 1.06 | 1.02 | 0.948 | 0.707 | 0.643 | 0.733 | 0.523 | 0.689 | 0.881 | 1.02 | 0.672 | 0.818 | 0.55
NCI-H1993 | 0.721 | 0.566 | 0.694 | 0.674 | 0.699 | 0.735 | 0.776 | 0.773 | 0.804 |  | 0.669 | 0.741 | 0.684 | 0.714 | 0.548 | 0.551 | 0.592 | 0.56 | 0.588 | 0.661
NCI-H2009 | 1.19 | 1.26 | 1.18 | 1.05 | 1.21 | 1.25 | 1.14 | 1.17 | 1.21 | 1.25 | 1.25 | 1.16 | 0.822 | 0.998 | 0.741 | 0.785 | 0.765 | 0.569 | 0.677 | 0.829
NCI-H2023 | 0.969 |  | 0.578 | 0.523 | 0.689 | 0.721 | 0.821 | 0.877 | 0.678 | 0.674 | 0.511 | 0.63 | 0.46 | 0.476 | 0.484 | 0.438 | 0.433 | 0.295 | 0.273 | 
NCI-H2085 |  | 1.11 | 1.07 | 0.844 | 0.842 | 0.977 | 0.837 | 0.9 | 0.855 | 0.829 | 0.934 | 0.768 | 0.797 | 0.859 | 0.788 | 0.974 | 0.69 | 0.797 | 0.757 | 0.78
NCI-H2087 | 1.1 | 1.21 | 1.07 | 1.03 | 0.957 | 0.975 | 1.09 | 0.891 | 1.09 | 0.765 | 1.03 | 0.966 | 0.776 | 0.778 | 0.226 | 0.251 | 0.276 | 0.28 | 0.252 | 
NCI-H2126 |  | 0.988 | 0.946 | 1.1 | 0.706 | 0.693 | 0.659 | 0.76 | 0.781 | 0.696 | 0.695 | 0.68 | 0.661 | 0.682 | 0.896 | 0.822 | 0.788 | 0.856 | 0.837 | 0.96
NCI-H2228 | 1.04 | 0.867 | 0.758 | 0.793 |  | 0.627 | 0.733 | 0.585 | 1.11 | 1.04 | 0.606 | 0.583 | 0.544 | 0.555 | 0.182 | 0.249 | 0.216 | 0.251 | 0.271 | 0.711
NCI-H2347 | 0.684 |  | 1.05 | 0.804 | 0.959 | 1.04 | 0.943 | 0.951 | 0.871 | 0.967 | 0.913 | 0.907 | 0.635 | 0.95 | 0.56 | 0.602 | 0.525 | 0.593 | 0.72 | 0.689
NCI-H2405 | 1.01 | 0.974 | 0.907 | 0.784 | 0.874 | 0.966 | 0.965 | 0.918 | 0.896 |  | 0.869 | 0.867 | 0.804 | 0.776 | 0.733 | 0.783 | 0.702 | 0.74 | 0.671 | 0.884
NCI-H3122 | 0.932 | 0.927 | 0.854 | 0.891 | 0.949 | 1.06 | 1.02 | 1.08 | 1 | 1.07 | 1.06 | 1.03 | 0.879 | 1.08 |  | 0.488 | 0.402 | 0.427 | 0.381 | 
PC-3 [JPC-3] | 1.05 | 0.991 | 0.927 | 0.931 | 0.967 | 0.999 | 0.902 | 0.957 | 1.07 | 0.964 | 0.947 | 0.862 | 0.853 | 0.923 | 0.852 | 0.927 | 0.897 | 0.941 | 0.863 | 0.833
PC-14 | 1.09 | 0.998 | 1.03 | 0.94 | 0.982 | 1.02 | 1.06 | 1.07 | 1.08 | 0.975 | 0.979 | 0.941 | 0.764 | 0.743 | 0.584 | 0.706 | 0.538 | 0.645 | 0.601 | 0.791
RERF-LC-KJ | 0.886 | 0.829 | 0.792 | 0.786 | 0.918 | 0.921 | 0.886 | 0.849 | 1 | 0.885 | 0.769 | 0.745 | 0.727 | 0.631 | 0.557 | 0.531 | 0.485 | 0.553 | 0.466 | 0.813
SK-LU-1 | 0.884 | 0.95 | 0.84 | 0.858 | 1.15 | 1.42 | 1.28 | 1.02 | 1.13 | 1.08 | 1.16 | 1.26 | 0.769 | 0.832 | 0.342 | 0.363 | 0.283 | 0.367 | 0.335 | 
SK-MES-1 | 0.763 | 0.817 | 0.857 | 0.604 | 1.18 | 1.16 | 1.15 | 1.32 | 1.12 | 1 | 1.01 | 0.93 | 0.737 | 0.921 | 0.977 | 0.908 | 1.09 | 1.03 | 0.968 | 0.588
SW 1573 | 1.01 | 0.891 | 0.835 | 0.709 | 0.884 | 0.753 | 0.855 | 0.966 | 0.835 | 0.82 | 0.713 | 0.698 | 0.768 | 0.758 | 0.18 | 0.166 | 0.174 | 0.129 | 0.194 | 0.753
UMC-11 | 0.965 | 1.13 | 1.19 | 1.43 | 1.01 | 1.08 | 1.06 | 0.978 | 0.977 | 1.16 | 1.01 | 1.1 | 0.913 | 1.49 | 0.214 | 0.192 | 0.2 | 0.198 | 0.204 | 1.04
